Data taken from US11673876B2, “Substituted aminobenzyl heteroaryl compounds as EGFR and/or PI3K inhibitors” (Mekanistic Therapeutics LLC, priority 2020, dated 2023).
pIC50: −log10 of the molar value. In brackets after ≈: the same amount, converted by molar mass.

What was measured:
[1] = Solubility determination (PBS 7.4, SIF, SGF); type: physicochemical; conditions: simulated intestinal fluid (SIF), kinetic from dmso stock; simulated intestinal fluid pH 6.8, 25° C., 2 hours; read-out: Solubility SIF
Protocol: Preparation of stock solutions: The stock solutions of test compounds and control compound diclofenac were prepared in DMSO at the concentrations of 10 mM.
Simulated Gastric Fluid (SGF): An aqueous mixture including hydrochloric acid, sodium chloride, and pepsin (pH=1.2).
Simulated Intestinal Fluid (SIF): Prepared by dissolving 6.8 g of KH2PO4 into about 500 mL ultrapure water and adjust the solution to a pH 6.8 with 0.1 M NaOH. 10 g trypsin is then dissolved into ultrapure water. The two solutions are mixed well and diluted with ultrapure water to a final volume of 1000 mL.
485 μL of (SIF, SGF, PBS 7.4, FESSIF, or FESSGF) was added into each vial of the cap-less Solubility Sample plate. The assay was performed in duplicate. Add one stir stick to each vial and seal using a molded PTFE/Silicone plug. […] After completion of the 2 hours, plugs were removed and the stir sticks were removed using a big magnet, the samples from the Solubility Sample plate were transferred into the filter plate. Using the Vacuum Manifold, all the samples were filtered. Aliquot of 5 μL and 5 μL DMSO were taken from the filtrate followed by addition of 490 μL of a mixture of H2O and acetonitrile containing internal standard (1:1). A certain proportion of ultrapure water was used to dilute the diluent according to the peak shape. The dilution factor was changed according to the solubility values and the LC-MS signal response.
Preparation of 300 μM standards (STD): From the 10 mM DMSO STD plate, 6 μL was transferred into the remaining empty plate, and then 194 μL of DMSO was added to that plate to have a STD concentration of 300 μM. From the 300 μM DMSO STD plate, 5 μL DMSO STD and 5 μL SIF was transferred into the remaining empty plate, and then 490 μL of a mixture of H2O and acetonitrile containing internal standard (1:1) was added to that plate to have a final STD concentration of 3 μM. A certain proportion of ultrapure water was used to dilute the diluent according to the peak shape. The concentrations of the standard samples were changed according to the LC-MS signal response.
Procedure for sample analysis: The plate was placed into the well plate autosampler. The samples were evaluated by LC-MS/MS analysis.
Data analysis: All calculations were carried out using Microsoft Excel. The filtrate was analyzed and quantified against a standard of known concentration using LC coupled with mass spectral peak identification and quantitation. Solubility values of the test compound and control compound were calculated as follows: […]
Any value of the compounds that was not within the specified limits was rejected and the experiment was repeated.

[2] = molecular target: DNA-PK (Homo sapiens (Human), UniProt P78527); assay: Z'-LYTE / Adapta kinase assay, DNA-PK; type: biochemical; conditions: for inhibition at 0.1 µM: read-out: DNA-PK % Inh. @ 100 nM
Text: (§1) The Z′-LYTE® biochemical assay employs a fluorescence-based, coupled-enzyme format and is based on the differential sensitivity of phosphorylated and non-phosphorylated peptides to proteolytic cleavage (FIG. 6). The peptide substrate is labeled with two fluorophores one at each end—that make up a FRET pair. In the primary reaction, the kinase transfers the gamma-phosphate of ATP to a single tyrosine, serine or threonine residue in a synthetic FRET-peptide. In the secondary reaction, a site-specific protease recognizes and cleaves non-phosphorylated FRET-peptides. Phosphorylation of FRET-peptides suppresses cleavage by the Development Reagent. Cleavage disrupts FRET between the donor (i.e., coumarin) and acceptor (i.e., fluorescein) fluorophores on the FRET-peptide, whereas uncleaved, phosphorylated FRET-peptides maintain FRET. A ratiometric method, which calculates the ratio (the Emission Ratio) of donor emission to acceptor emission after excitation of the donor fluorophore at 400 nm, is used to quantitate reaction progress.
(§2) A significant benefit of this ratiometric method for quantitating reaction progress is the elimination of well-to-well variations in FRET-peptide concentration and signal intensities. As a result, the assay yields very high Z′-factor values (>0.7) at a low percent phosphorylation.
(§3) Both cleaved and uncleaved FRET-peptides contribute to the fluorescence signals and therefore to the Emission Ratio. The extent of phosphorylation of the FRET-peptide can be calculated from the Emission Ratio.
(§4) Enzyme: The ADAPTA universal kinase assay is a homogenous, fluorescent based immunoassay for the detection of ADP. In contrast to ATP depletion assays, the ADAPTA assay is extremely sensitive to ADP formation such that a majority of the signal change occurs in the first 10-20% conversion of ATP to ADP. This makes the ADAPTA universal kinase assay ideally suited for use with low activity kinases.
(§5) The principle of the ADAPTA universal kinase assay is outlined below. The assay itself can be divided into two phases: a kinase reaction phase, and an ADP detection phase. In the kinase reaction phase, all components required for the kinase reaction are added to the well, and the reaction is allowed to incubate for 60 minutes.
(§6) Z′-LYTE® Assay Conditions:
(§7) Test Compounds: The Test Compounds are screened in 1% DMSO (final) in the well. For 10 point titrations, 3-fold serial dilutions are conducted from the starting concentration.
(§8) Peptide/Kinase Mixtures: All Peptide/Kinase Mixtures are diluted to a 2× working concentration in the appropriate Kinase Buffer.
(§9) ATP Solution: All ATP Solutions are diluted to a 4× working concentration in Kinase Buffer (50 mM HEPES pH 7.5, 0.01% BRIJ-35, 10 mM MgCl2, 1 mM EGTA). ATP Km apparent is previously determined using a Z′-LYTE® assay.
(§10) Development Reagent Solution: The Development Reagent is diluted in Development Buffer. […]
(§11) 2.5 μL—4× Test Compound or 100 nL 100× plus 2.4 μL kinase buffer. 2. 5 μL—2× Peptide/Kinase Mixture. 3. 2.5 μL—4× ATP Solution. 4. 30-second plate shake. 5. 60-minute Kinase Reaction incubation at room temperature. 6. 5 μL—Development Reagent Solution. 7. 30-second plate shake. 8. 60-minute Development Reaction incubation at room temperature. 9.

[3] = molecular target: PI3Ka (Homo sapiens (Human), UniProt P42336); assay: Z'-LYTE / Adapta kinase assay, PI3Ka; type: biochemical; conditions: for inhibition at 0.1 µM: read-out: PI3Ka % Inh. @ 100 nM
Text: as §1, §2, §3, §4, §5, §6, §7, §8, §9, §10, §11

[4] = molecular target: EGFR (Homo sapiens (Human), UniProt P00533); assay: Z'-LYTE / Adapta kinase assay, EGFR; type: biochemical; conditions: for inhibition at 0.1 µM: read-out: EGFR % Inh. @ 100 nM
Text: as §1, §2, §3, §4, §5, §6, §7, §8, §9, §10, §11

EGFR, sequence (P00533 25-1210): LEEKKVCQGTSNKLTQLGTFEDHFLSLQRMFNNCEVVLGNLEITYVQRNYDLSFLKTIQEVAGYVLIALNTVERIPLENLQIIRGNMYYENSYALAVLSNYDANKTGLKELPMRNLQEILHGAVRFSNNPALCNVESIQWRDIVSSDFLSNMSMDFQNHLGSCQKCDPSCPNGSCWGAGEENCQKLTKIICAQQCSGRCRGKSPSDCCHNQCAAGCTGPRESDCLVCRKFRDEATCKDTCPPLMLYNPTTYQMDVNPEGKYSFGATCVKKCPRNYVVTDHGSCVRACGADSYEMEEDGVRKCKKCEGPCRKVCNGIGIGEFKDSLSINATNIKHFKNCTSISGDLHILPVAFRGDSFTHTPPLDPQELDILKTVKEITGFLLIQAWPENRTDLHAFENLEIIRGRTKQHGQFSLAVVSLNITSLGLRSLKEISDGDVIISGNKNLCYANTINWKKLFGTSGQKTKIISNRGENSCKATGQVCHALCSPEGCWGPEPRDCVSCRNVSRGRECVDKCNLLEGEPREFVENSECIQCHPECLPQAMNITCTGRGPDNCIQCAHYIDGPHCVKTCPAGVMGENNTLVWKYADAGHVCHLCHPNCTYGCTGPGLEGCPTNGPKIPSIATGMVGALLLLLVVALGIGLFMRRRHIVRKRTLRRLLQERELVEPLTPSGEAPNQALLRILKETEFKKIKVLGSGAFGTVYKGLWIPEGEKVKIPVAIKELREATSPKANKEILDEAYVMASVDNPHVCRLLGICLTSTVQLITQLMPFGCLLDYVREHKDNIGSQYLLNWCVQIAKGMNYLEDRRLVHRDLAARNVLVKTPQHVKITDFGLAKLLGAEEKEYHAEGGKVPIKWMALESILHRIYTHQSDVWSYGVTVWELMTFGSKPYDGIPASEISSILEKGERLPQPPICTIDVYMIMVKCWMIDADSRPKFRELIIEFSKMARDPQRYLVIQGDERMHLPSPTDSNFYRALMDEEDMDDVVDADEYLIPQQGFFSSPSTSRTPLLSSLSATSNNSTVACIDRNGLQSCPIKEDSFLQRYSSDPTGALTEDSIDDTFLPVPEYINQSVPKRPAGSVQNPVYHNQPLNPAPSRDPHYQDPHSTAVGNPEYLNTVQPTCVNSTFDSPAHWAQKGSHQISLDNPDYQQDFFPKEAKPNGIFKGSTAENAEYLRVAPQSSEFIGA
PI3Ka, sequence (P42336 whole entry): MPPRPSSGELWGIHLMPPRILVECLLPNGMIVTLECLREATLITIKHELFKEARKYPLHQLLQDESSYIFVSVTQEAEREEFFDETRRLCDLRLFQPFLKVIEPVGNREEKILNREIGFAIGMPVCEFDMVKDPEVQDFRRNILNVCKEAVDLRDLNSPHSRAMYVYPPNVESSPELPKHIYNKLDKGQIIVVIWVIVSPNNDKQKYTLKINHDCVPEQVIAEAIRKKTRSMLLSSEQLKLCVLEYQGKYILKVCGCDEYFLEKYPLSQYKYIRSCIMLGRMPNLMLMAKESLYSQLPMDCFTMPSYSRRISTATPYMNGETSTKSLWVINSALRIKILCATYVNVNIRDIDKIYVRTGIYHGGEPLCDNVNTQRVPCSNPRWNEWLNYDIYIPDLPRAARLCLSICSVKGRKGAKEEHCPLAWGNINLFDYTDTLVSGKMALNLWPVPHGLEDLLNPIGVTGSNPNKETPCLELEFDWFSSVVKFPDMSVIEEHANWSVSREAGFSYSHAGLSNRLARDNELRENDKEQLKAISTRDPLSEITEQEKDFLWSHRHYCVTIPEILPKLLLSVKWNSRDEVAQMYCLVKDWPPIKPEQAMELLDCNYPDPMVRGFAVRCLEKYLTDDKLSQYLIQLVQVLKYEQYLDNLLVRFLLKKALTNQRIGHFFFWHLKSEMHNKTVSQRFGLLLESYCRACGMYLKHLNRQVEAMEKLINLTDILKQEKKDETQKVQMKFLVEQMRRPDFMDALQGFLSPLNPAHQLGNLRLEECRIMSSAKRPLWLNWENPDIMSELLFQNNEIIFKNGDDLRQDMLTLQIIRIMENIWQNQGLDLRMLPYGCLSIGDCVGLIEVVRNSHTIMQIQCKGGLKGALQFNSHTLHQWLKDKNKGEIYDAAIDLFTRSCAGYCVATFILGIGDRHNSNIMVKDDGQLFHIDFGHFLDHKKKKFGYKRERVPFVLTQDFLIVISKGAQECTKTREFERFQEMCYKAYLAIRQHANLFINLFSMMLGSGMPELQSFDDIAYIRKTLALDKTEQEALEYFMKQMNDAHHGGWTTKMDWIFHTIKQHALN
PI3Ka, sequence (P27986 whole entry partner): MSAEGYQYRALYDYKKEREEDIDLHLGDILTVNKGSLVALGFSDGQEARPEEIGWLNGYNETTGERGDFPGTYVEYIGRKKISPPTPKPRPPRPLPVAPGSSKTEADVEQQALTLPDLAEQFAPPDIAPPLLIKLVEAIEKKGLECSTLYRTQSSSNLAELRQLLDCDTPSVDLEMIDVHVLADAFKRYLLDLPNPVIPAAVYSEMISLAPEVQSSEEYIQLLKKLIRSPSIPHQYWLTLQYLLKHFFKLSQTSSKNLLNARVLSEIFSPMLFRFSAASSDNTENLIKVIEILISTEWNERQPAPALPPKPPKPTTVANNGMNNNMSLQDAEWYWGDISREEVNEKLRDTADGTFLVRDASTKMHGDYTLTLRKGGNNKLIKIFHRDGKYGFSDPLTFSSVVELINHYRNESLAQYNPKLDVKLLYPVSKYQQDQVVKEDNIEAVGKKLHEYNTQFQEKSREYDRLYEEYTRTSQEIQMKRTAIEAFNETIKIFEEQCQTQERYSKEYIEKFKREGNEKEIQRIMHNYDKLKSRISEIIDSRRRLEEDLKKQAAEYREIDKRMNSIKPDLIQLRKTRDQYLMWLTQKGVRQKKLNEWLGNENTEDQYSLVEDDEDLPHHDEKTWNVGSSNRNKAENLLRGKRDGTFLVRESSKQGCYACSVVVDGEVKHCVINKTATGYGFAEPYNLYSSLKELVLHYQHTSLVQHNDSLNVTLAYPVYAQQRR

solubility at 2 h [1]	pIC50 [2]	inhibition at 0.1 µM [2]	pIC50 [3]	inhibition at 0.1 µM [3]	pIC50 [4]	inhibition at 0.1 µM [4]	Structure (SMILES)
20 to 100 µM (≈ 7.73 to 38.6 µg/mL)	< 6.70	10 to 80%	6.70 to 7.70	10 to 80%	–	–	COc1cc(-c2ccc3ncnc(NC(C)c4ccccc4)c3c2)cnc1OC (stereo not shown) [Compound 22, 6-(5,6-dimethoxy-3-pyridyl)-N-(1-phenylethyl) quinazolin-4-amine]
≤ 20 µM	7.70 to 8.70	80 to 90%	6.70 to 7.70	10 to 80%	7.70 to 8.70	80 to 90%	CC(Nc1c(C#N)cnc2ccc(-c3cncc(-c4n[nH]c(=O)o4)c3)cc12)c1ccccc1 (stereo not shown) [Compound 129, 6-[5-(2-oxo-3H-1,3,4-oxadiazol-5-yl)-3-pyridyl]-4-(1-phenylethylamino) quinoline-3-carbonitrile]
20 to 100 µM (≈ 6.85 to 34.2 µg/mL)	–	10 to 80%	–	10 to 80%	–	80 to 90%	CC(Nc1ncnc2ccc(-c3cnc(N)nc3)cc12)c1ccccc1 (stereo not shown) [Compound 7, 6-(2-aminopyrimidin-5-yl)-N-(1-phenylethyl)quinazolin-4-amine]
–	–	10 to 80%	–	< 10%	–	80 to 90%	CC(Nc1c(C#N)cnc2ccc(-c3cccc(-c4n[nH]c(=O)o4)c3)cc12)c1ccccc1 (stereo not shown) [Compound 127, 6-[3-(2-oxo-3H-1,3,4-oxadiazol-5-yl)phenyl]-4-(1-phenylethylamino) quinoline-3-carbonitrile]
–	–	< 10%	–	< 10%	–	10 to 80%	CC(Nc1c(C#N)cnc2ccc(-c3cc(Cl)c(O)c(Cl)c3)cc12)c1ccccc1 (stereo not shown) [Compound 131, 6-(3,5-dichloro-4-hydroxy-phenyl)-4-(1-phenylethylamino) quinoline-3-carbonitrile]
–	–	< 10%	–	10 to 80%	–	> 90%	C[C@@H](Nc1ncnc2ccc(-c3cccc(-c4nnc[nH]4)c3)cc12)c1ccccc1 [Compound 137, N-[(1R)-1-phenylethyl]-6-[3-(4H-1,2,4-triazol-3-yl)phenyl]quinazolin-4-amine]
–	–	< 10%	–	10 to 80%	–	80 to 90%	CC(Nc1c(C#N)cnc2ccc(-c3ccc4oc(N)nc4c3)cc12)c1ccccc1 (stereo not shown) [Compound 87, 6-(2-amino-1,3-benzoxazol-5-yl)-4-(1-phenylethylamino) quinoline-3-carbonitrile]
